Measured values reported in the supplement of paper PMC7017272.
± gives the standard deviation of the averaged measurements.

What was measured:
Details in all cases: treatment time: 3 days
UT-SCC-42B [1] = test: drug sensitivity score (DSS); higher = more sensitive; extreme values may be limits of the assay
Outline: (§1)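 HPV-negative HNSCC cell lines were seeded at 500 cells/well in 384-well plates on plastic, on Matrigel- or Myogel-coated wells (500 µg/mL), or embedded in Matrigel or Myogel plus rat collagen I. Compounds were given at five 10-fold concentrations for 3 days, and viability was read by CellTiter-Glo 2.0 luminescence. Signals were normalised to vehicle (0.1% DMSO) and cell-killing control wells. Percent-inhibition dose–response curves were fitted in the FIMM pipeline to derive IC50, maximal inhibition and drug sensitivity score.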

UT-SCC-106A = test: as above
Outline: as §1

UT-SCC-28 = test: as above
Outline: as §1

UT-SCC-8 = test: as above
Outline: as §1

UT-SCC-44 = test: as above
Outline: as §1

UT-SCC-40 = test: as above
Outline: as §1

UT-SCC-14 [2] = test: as above
Outline: as §1

UT-SCC-73 = test: as above
Outline: as §1

UT-SCC-42A = test: as above
Outline: as §1

UT-SCC-81 [3] = test: as above
Outline: as §1

UT-SCC-24B = test: as above
Outline: as §1

UT-SCC-24A [4] = test: maximal % inhibition of viability relative to DMSO; higher = stronger effect
Description: (§2)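 HNSCC cell lines (500 cells/well, 384-well) were cultured on plastic, on top of (2D) or embedded (3D) in Matrigel or human leiomyoma matrix Myogel (500 ug/mL; Myogel 3D mixed with rat collagen I). Cells were treated for 3 days with 5 ten-fold concentrations of each drug, and viability was read by CellTiter-Glo. Viability was normalised to DMSO (0% inhibition) and 100 uM benzethonium chloride (100% inhibition) controls and fitted with the FIMM DSRT pipeline to give IC50 (nM), maximal % inhibition and the drug sensitivity score (DSS). Suffixes _1/_2/_3 on drug names are replicates.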

UT-SCC-24A [5] = test: drug sensitivity score (DSS); higher = more sensitive
Description: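 HNSCC cell lines (500 cells/well, 384-well) were cultured on plastic, on top of (2D) or embedded (3D) in Matrigel or human leiomyoma matrix Myogel (500 ug/mL; Myogel 3D mixed with rat collagen I). Cells were treated for 3 days with 5 ten-fold concentrations of each drug, and viability was read by CellTiter-Glo. Suffixes _1/_2/_3 on drug names are replicates.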

UT-SCC-24A [6] = test: relative IC50 (midpoint of the fitted curve; maximal inhibition may be below 50%); higher = less potent
Description: as §2

UT-SCC-42B [7] = test: maximal % inhibition of viability relative to DMSO; higher = stronger effect
Description: as §2, with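 “DMSO” for “DMSO (0% inhibition)”, “and” for “and 100 uM”, “chloride” for “chloride (100% inhibition)”, “DSS.” for “the drug sensitivity score (DSS).”, “_1/_2/_3” for “_1/_2/_3 on drug names”, “replicates. Only inhibition-mode (IC50) fits are kept.” for “replicates.”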

UT-SCC-14 [8] = test: as above
Description: as §2, with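 “DMSO” for “DMSO (0% inhibition)”, “and” for “and 100 uM”, “chloride” for “chloride (100% inhibition)”, “DSS.” for “the drug sensitivity score (DSS).”, “_1/_2/_3” for “_1/_2/_3 on drug names”, “replicates. Only inhibition-mode (IC50) fits are kept.” for “replicates.”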

UT-SCC-81 [9] = test: as above
Description: as §2, with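 “DMSO” for “DMSO (0% inhibition)”, “and” for “and 100 uM”, “chloride” for “chloride (100% inhibition)”, “DSS.” for “the drug sensitivity score (DSS).”, “_1/_2/_3” for “_1/_2/_3 on drug names”, “replicates. Only inhibition-mode (IC50) fits are kept.” for “replicates.”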

[10] = culture condition: embedded in Matrigel
[11] = culture condition: on top of Matrigel
[12] = culture condition: on top of Myogel
[13] = culture condition: plastic 2D (no matrix)
[14] = culture condition: embedded in Myogel + collagen I

Q: Which results are given for `CO[C@H]1C[C@@H]2CC[C@@H](C)[C@@](O)(O2)C(=O)C(=O)N2CCCC[C@H]2C(=O)O[C@H]([C@H](C)C[C@@H]2CC[C@@H](OCCO)[C@H](OC)C2)CC(=O)[C@H](C)/C=C(\C)[C@@H](O)[C@@H](OC)C(=O)[C@H](C)C[C@H](C)/C=C/C=C/C=C/1C` [Everolimus]?
A: drug sensitivity score (UT-SCC-42B [1]; [10]): 0 DSS; drug sensitivity score (UT-SCC-42B [1]; [11]): 0.733 ± 0.67 DSS; drug sensitivity score (UT-SCC-42B [1]; [12]): 0.433 ± 0.38 DSS; drug sensitivity score (UT-SCC-42B [1]; [13]): 0.133 ± 0.12 DSS; drug sensitivity score (UT-SCC-106A; [10]): 1.27 ± 0.31 DSS; drug sensitivity score (UT-SCC-106A; [14]): 2.77 ± 0.81 DSS; drug sensitivity score (UT-SCC-106A; [11]): 1.53 ± 1.4 DSS; drug sensitivity score (UT-SCC-106A; [12]): 1.33 ± 0.6 DSS; drug sensitivity score (UT-SCC-106A; [13]): 7.3 ± 6 DSS; drug sensitivity score (UT-SCC-28; [10]): 3.57 ± 1.1 DSS; drug sensitivity score (UT-SCC-28; [14]): 3.37 ± 1.5 DSS; drug sensitivity score (UT-SCC-28; [11]): 2.63 ± 1.4 DSS; drug sensitivity score (UT-SCC-28; [13]): 4.63 ± 1.6 DSS; drug sensitivity score (UT-SCC-8; [10]): 5.3 ± 2.3 DSS; drug sensitivity score (UT-SCC-8; [14]): 4.2 ± 6.5 DSS; drug sensitivity score (UT-SCC-8; [11]): 5.8 ± 6 DSS; drug sensitivity score (UT-SCC-8; [12]): 7.9 ± 6 DSS; drug sensitivity score (UT-SCC-8; [13]): 6.57 ± 3.2 DSS; drug sensitivity score (UT-SCC-44; [10]): 2.47 ± 3.5 DSS; drug sensitivity score (UT-SCC-44; [14]): 5.4 ± 0.36 DSS; drug sensitivity score (UT-SCC-44; [11]): 6.83 ± 1.1 DSS; drug sensitivity score (UT-SCC-44; [12]): 7.67 ± 0.12 DSS; drug sensitivity score (UT-SCC-44; [13]): 5.07 ± 2 DSS; drug sensitivity score (UT-SCC-40; [10]): 3.83 ± 6 DSS; drug sensitivity score (UT-SCC-40; [14]): 3.13 ± 3.1 DSS; drug sensitivity score (UT-SCC-40; [11]): 2.1 ± 1.3 DSS; drug sensitivity score (UT-SCC-40; [12]): 1.8 ± 1.9 DSS; drug sensitivity score (UT-SCC-40; [13]): 1.73 ± 1.6 DSS; drug sensitivity score (UT-SCC-14 [2]; [10]): 8.37 ± 3.1 DSS; drug sensitivity score (UT-SCC-14 [2]; [14]): 10.2 ± 3.4 DSS; drug sensitivity score (UT-SCC-14 [2]; [11]): 5.67 ± 2.2 DSS; drug sensitivity score (UT-SCC-14 [2]; [12]): 7.77 ± 2.7 DSS; drug sensitivity score (UT-SCC-14 [2]; [13]): 7.63 ± 2.4 DSS; drug sensitivity score (UT-SCC-73; [10]): 2.37 ± 1.2 DSS; drug sensitivity score (UT-SCC-73; [14]): 8.4 ± 7.2 DSS; drug sensitivity score (UT-SCC-73; [11]): 3.93 ± 1.3 DSS; drug sensitivity score (UT-SCC-73; [12]): 4.27 ± 1.7 DSS; drug sensitivity score (UT-SCC-73; [13]): 3.23 ± 0.51 DSS; drug sensitivity score (UT-SCC-42A; [10]): 0.933 ± 1.1 DSS; drug sensitivity score (UT-SCC-42A; [14]): 3.87 ± 0.76 DSS; drug sensitivity score (UT-SCC-42A; [11]): 2.6 ± 0.4 DSS; drug sensitivity score (UT-SCC-42A; [12]): 3.27 ± 0.83 DSS; drug sensitivity score (UT-SCC-42A; [13]): 2.07 ± 0.91 DSS; drug sensitivity score (UT-SCC-81 [3]; [10]): 7.87 ± 6.4 DSS; drug sensitivity score (UT-SCC-81 [3]; [14]): 9.2 ± 0.62 DSS; drug sensitivity score (UT-SCC-81 [3]; [11]): 5 ± 0.76 DSS; drug sensitivity score (UT-SCC-81 [3]; [12]): 7.07 ± 1.8 DSS; drug sensitivity score (UT-SCC-81 [3]; [13]): 7.8 ± 0.44 DSS; drug sensitivity score (UT-SCC-24B; [10]): 1.17 ± 1.5 DSS; drug sensitivity score (UT-SCC-24B; [14]): 5.5 ± 2.1 DSS; drug sensitivity score (UT-SCC-24B; [11]): 1.93 ± 1.7 DSS; drug sensitivity score (UT-SCC-24B; [12]): 4.07 ± 1.6 DSS; drug sensitivity score (UT-SCC-24B; [13]): 2.43 ± 1.4 DSS; maximal % inhibition of viability (UT-SCC-24A [4]; [10]): 51.3 ± 40%; maximal % inhibition of viability (UT-SCC-24A [4]; [14]): 33.2 ± 13%; maximal % inhibition of viability (UT-SCC-24A [4]; [11]): 31.5 ± 13%; maximal % inhibition of viability (UT-SCC-24A [4]; [12]): 26.8 ± 1.4%; maximal % inhibition of viability (UT-SCC-24A [4]; [13]): 28.2 ± 2.9%; drug sensitivity score (UT-SCC-24A [5]; [10]): 3.6 ± 6.2 DSS; drug sensitivity score (UT-SCC-24A [5]; [14]): 6.43 ± 3 DSS; drug sensitivity score (UT-SCC-24A [5]; [11]): 2.93 ± 2.3 DSS; drug sensitivity score (UT-SCC-24A [5]; [12]): 2.57 ± 0.21 DSS; drug sensitivity score (UT-SCC-24A [5]; [13]): 2.57 ± 0.25 DSS; relative IC50 (UT-SCC-24A [6]; [14]): 0.761 nM; relative IC50 (UT-SCC-24A [6]; [12]): 10.4 nM; maximal % inhibition of viability (UT-SCC-42B [7]; [10]): 14.8 ± 5.8%; maximal % inhibition of viability (UT-SCC-42B [7]; [11]): 14.4 ± 2.9%; maximal % inhibition of viability (UT-SCC-42B [7]; [12]): 10.9 ± 2.4%; maximal % inhibition of viability (UT-SCC-42B [7]; [13]): 12.6 ± 3.1%; maximal % inhibition of viability (UT-SCC-14 [8]; [10]): 58 ± 10%; maximal % inhibition of viability (UT-SCC-14 [8]; [14]): 50.9 ± 5.5%; maximal % inhibition of viability (UT-SCC-14 [8]; [11]): 47.6 ± 5.8%; maximal % inhibition of viability (UT-SCC-14 [8]; [12]): 42.6 ± 0.36%; maximal % inhibition of viability (UT-SCC-14 [8]; [13]): 46.4 ± 8.9%; maximal % inhibition of viability (UT-SCC-81 [9]; [10]): 43.5 ± 14%; maximal % inhibition of viability (UT-SCC-81 [9]; [14]): 54.1 ± 1.6%; maximal % inhibition of viability (UT-SCC-81 [9]; [11]): 39.4 ± 3.5%; maximal % inhibition of viability (UT-SCC-81 [9]; [12]): 53.2 ± 3.5%; maximal % inhibition of viability (UT-SCC-81 [9]; [13]): 46.8 ± 3.7%
